Laboratory results reported in patent US6916802B2, “Amino ceramide-like compounds and therapeutic methods of use” (Genzyme Corporation, priority 2002, dated 2005).
Marks after values point to notes of the source that are not given here.

Experiments:
[1] = system: GlcCer synthase of MDCK cell homogenates; assay: Inhibition of ceramide glucosyltransferase (GlcCer synthase) of MDCK cell homogenates; format: biochemical, canine; details: for Inhibition at 5 μM: 5 μM inhibitor; for Inhibition at 5 μM / % Inhibition at 80 μM: triplicate ± SD, samples partly isomer mixtures; for % Inhibition at 80 μM: 80 μM inhibitor; for inhibition of GlcCer synthase by nonionic ceramide-like compounds: 20 μM
Protocol: Assay of sphingolipid enzymes. The inhibitors were evaluated for their effectiveness against the GlcCer synthase of MDCK cell homogenates by incubation in a thermostatted ultrasonic bath (Radin N. S. et al., “Ultrasonic Baths as Substitutes for Shaking Incubator Baths,” Enzyme, 45:67-70 (1991)) with octanoyl sphingosine and uridinediphospho[^3H]glucose (Shukla, G. S. et al., “Glucosylceramide Synthase of Mouse Kidney: Further Characterization and Improved Assay Method,” Arch. Biochem. Biophys., 283:372-378 (1990)). The lipoidal substrate (85 μg) was added in liposomes made from 0.57 mg dioleoylphosphatidylcholine and 0.1 mg of Na sulfatide. Confluent cells were washed, then homogenized with a micro-tip sonicator at 0° C. for 3×30 sec; ˜0.2 mg of protein was used in each assay tube. In the case of the aromatic inhibitors, the test compound was simply evaporated to dryness from solution in the incubation tube. […] The aliphatic inhibitors, which appeared to be less soluble in water, were added as part of the substrate liposomes.

[2] = system: MCF-7 breast carcinoma cells; assay: Tumor cell growth in vitro (sulforhodamine B), MCF-7; format: cell-based, human; details: rounded off to one digit, read-out: Inhibition of tumor cell growth in vitro, IC50
Protocol: (§1) Growth of cell lines. Comparisons of different inhibitors with regard to suppression of human cancer cell growth were made by the University of Michigan Cancer Center in vitro Drug Evaluation Core Laboratory. MCF-7 breast carcinoma cells, HT-29 colon adenocarcinoma cells, H-460 lung large cell carcinoma cells, and 9L brain gliosarcoma cells were grown in RPMI 1640 medium with 5% fetal bovine serum, 2 mM glutamine, 50 units/ml of penicillin, […] of streptomycin, and 0.1 mg/ml of neomycin. UMSCC-10A head and neck squamous carcinoma cells were grown in minimal essential medium with Earle salts and the same supplements. Medium components were from Sigma Chemical Co. Cells were plated in 96-well microtiter plates (1000 cells/well for H-460 and 9L cells, and 2000 cells/well for the other lines), and the test compounds were added 1 day later. The stock inhibitor solutions, 2 mM in 2 mM BSA, were diluted with different amounts of additional 2 mM BSA, then each solution was diluted 500-fold with growth medium to obtain the final concentrations indicated in the Figures and Tables.
(§2) Five days after plating the H-460 and 9L cells, or 6 days for the other lines, cell growth was evaluated by staining the adhering cells with sulforhodamine B and measuring the absorbance at 520 nm (Skehan, P. et al., “New Colorimetric Cytotoxicity Assay for Anticancer-Drug Screening,” J. Natl. Cancer Inst., 82:1107-1112 (1990)). The absorbance of the treated cultures is reported as percent of that of control cultures, to provide an estimate of the fraction of the cells that survived, or of inhibition of growth rate.

[3] = system: H-460 lung large cell carcinoma cells; assay: Tumor cell growth in vitro (sulforhodamine B), H-460; format: cell-based, human; details: rounded off to one digit, read-out: Inhibition of tumor cell growth in vitro, IC50
Protocol: as §1, §2

[4] = system: 9L brain gliosarcoma cells; assay: Tumor cell growth in vitro (sulforhodamine B), 9L; format: cell-based
Protocol: as §1, §2

MDCK cells [5] = assay: MDCK cell growth (cellular protein per dish); format: cell-based, canine
Protocol: For the experiments with labeled thymidine, each 8.5 cm dish contained 500,000 Madin-Darby canine kidney (MDCK) cells in 8 ml of Dulbecco modified essential supplemented medium. […] The control cells were also incubated in the presence of BSA. The cells were washed with phosphate/saline and trichloroacetic acid, then scraped off the dishes, dissolved in alkali, and analyzed for protein and DNA incorporated tritium. [Methyl-^3H]thymidine (10 μCi) was added 4 h prior to harvesting.

acid ceramidase = assay: Acid ceramidase of MDCK cell homogenate; format: biochemical, canine
Protocol: (§3) Acid and neutral ceramidases were assayed under conditions like those above, but the medium contained 110 μM [1-^14C]decanoyl sphingosine (10^5 cpm) in 340 μM dioleoylphosphatidylcholine liposomes and 0.34 mg of MDCK cellular protein homogenate. […] After 60 min in the ultrasonic bath, 3 ml of C-M 2:1, carrier decanoic acid, and 0.6 ml of 0.9% saline were added and the lipids in the lower layer were separated by TLC with C-HOAc 9:1. The liberated decanoic acid was scraped off the glass plate and counted.

neutral ceramidase = assay: Neutral ceramidase of MDCK cell homogenate; format: biochemical, canine
Protocol: as §3

Ceramide synthase = Ceramide synthase of MDCK homogenate; format: biochemical, canine
Protocol: Ceramide synthase was assayed with 1 μM [3-^3H]sphingosine (70,000 cpm, repurified by column chromatography), 0.2 mM stearoyl-CoA, 0.5 mM dithiothreitol, and ˜300 μg of MDCK homogenate protein in 25 mM phosphate-K^+ buffer, pH 7.4, in a total volume of 0.2 ml. The incubation (for 30 min) and TLC were carried out as above and the ceramide band was counted.

Acid SMase = assay: Acid sphingomyelinase of MDCK cells; format: biochemical, canine
Protocol: Acid and neutral SMase assays were based on the procedures of Gatt et al. (Gatt, S. et al., “Assay of Enzymes of Lipid Metabolism With Colored and Fluorescent Derivatives of Natural Lipids,” Meth. Enzymol., 72:351-375 (1981)), using liposomes containing NBD-SM dispersed like the labeled ceramide (10 μM substrate and 30 μM lecithin). The assay medium for the neutral enzyme also contained 50 mM Tris-Cl^− (pH 7.4), 25 mM KCl, 5 mM MgCl2 and 0.29 mg of MDCK cell protein in a total volume of 0.25 ml. Incubation was at 37° C. for 30 min in the ultrasonic bath, then the fluorescent product, NBD-ceramide, was isolated by partitioning the assay mixture with 0.45 ml 2-propanol, 1.5 ml heptane, and 0.2 ml water. After centrifugation, a trace of contaminating NBD-SM was removed from 0.9 ml of the upper layer by washing with 0.35 ml water. The upper layer was analyzed with a fluorometer (460 nm excitation, 515 nm emission).
[…] The resultant ceramide was determined as above.

[6] = system: Neutral sphingomyelinase (SMase); assay: Neutral sphingomyelinase of MDCK cells; format: biochemical, canine
Protocol: Acid and neutral SMase assays were based on the procedures of Gatt et al. (Gatt, S. et al., “Assay of Enzymes of Lipid Metabolism With Colored and Fluorescent Derivatives of Natural Lipids,” Meth. Enzymol., 72:351-375 (1981)), using liposomes containing NBD-SM dispersed like the labeled ceramide (10 μM substrate and 30 μM lecithin). […] Incubation was at 37° C. for 30 min in the ultrasonic bath, then the fluorescent product, NBD-ceramide, was isolated by partitioning the assay mixture with 0.45 ml 2-propanol, 1.5 ml heptane, and 0.2 ml water. After centrifugation, a trace of contaminating NBD-SM was removed from 0.9 ml of the upper layer by washing with 0.35 ml water. The upper layer was analyzed with a fluorometer (460 nm excitation, 515 nm emission).

MDCK cells [7] = assay: Lipid changes in MDCK cells (GlcCer, ceramide, diacylglycerol); format: cell-based, canine

SMILES: CCCCCCCCCCCCC/C=C/[C@H](O)[C@@H](CN1CCCC1)NC(=O)CCCCCCCCCCCCCCC [IV-230A]
- Inhibition at 5 μM [1]: 19 ± 2.1^g %

SMILES: CCCCCCCCCCCCCCCC(=O)NC(CN1CCCCC1)C(O)c1ccc(F)cc1 (mixture of isomers) [BML-118]
- Inhibition at 5 μM [1]: 8.3 ± 1.4^f %
- % Inhibition at 80 μM [1]: 62 ± 0.4^b %
- IC50 [2]: 2000 nM
- IC50 [3]: 2000 nM
- IC50 ([4]; 9L, rounded off to one digit, read-out: Inhibition of tumor cell growth in vitro, IC50): 2000 nM

SMILES: CCCCCCCCCCCCC/C=C/[C@H](O)[C@@H](CN1CCOCC1)NC(=O)CCCCCCCCCCCCCCC [IV-181A]
- Inhibition at 5 μM [1]: 12 ± 0.2^g %

SMILES: CCCCCCCCCCCCCCCC(=O)NC(CN1CCCC(N(C)C)C1)C(O)c1ccccc1 (mixture of isomers) [BML-121]
- % Inhibition at 80 μM [1]: 11 ± 0.4^c %

SMILES: CCCCCCCCCCCCC/C=C/[C@@H](O)[C@H](CO)NC(C)=O [N-acetylsphingosine, reference compound]
- inhibition of GlcCer synthase by nonionic ceramide-like compounds [1]: did not inhibit

SMILES: CCCCCCCCCCCCC/C=C/[C@@H](O)[C@@H](CN1CCOCC1)NC(=O)CCCCCCCCCCCCCCC [IV-206A]
- Inhibition at 5 μM [1]: 73 ± 1.5^g %

SMILES: CCCCCCCCCCCCCC=CC(O)C(CN1CCCC1)NC(=O)CCCCCCCCCCCCCCC [IV-231B, D-threo-1-pyrrolidino-1-deoxyceramide]
- degree of inhibition of GlcCer synthase ([1]; 3 μM, inhibitor incorporated into the substrate liposomes): 77±0.9%
- Inhibition at 5 μM [1]: 87 ± 0.4^g %
- effect on MDCK cell growth (MDCK cells [5]; 20 μM for 1 day or 1 μM for 3 days): no inhibitory effect
- effect on MDCK cell growth (MDCK cells [5]; 5 days in 5 μM inhibitor): no slowing of growth
- protein per dish (MDCK cells [5]; 5 days in 5 μM inhibitor, BSA complex): 3.30 ± 0.04 mg
- Ceramidase pH 4.5, enzyme activity (% of control) (acid ceramidase; 5 μM): 106 ± 3 % of control
- Ceramidase pH 4.5, enzyme activity (% of control) (acid ceramidase; 50 μM): 113 ± 8 % of control
- Ceramidase pH 7.4, enzyme activity (% of control) (neutral ceramidase; 5 μM): 116 ± 20 % of control
- Ceramidase pH 7.4, enzyme activity (% of control) (neutral ceramidase; 50 μM): 112 ± 3 % of control
- Ceramide Synthase, enzyme activity (% of control) (Ceramide synthase; 5 μM): 90 ± 8 % of control
- Ceramide Synthase, enzyme activity (% of control) (Ceramide synthase; 50 μM): 71 ± 18^a % of control
- Sphingomyelinase pH 4.5, enzyme activity (% of control) (Acid SMase; 5 μM): 101 ± 7 % of control
- Sphingomyelinase pH 4.5, enzyme activity (% of control) (Acid SMase; 50 μM): 112 ± 11 % of control
- Sphingomyelinase pH 7.1, enzyme activity (% of control) ([6]; 5 μM): 131 ± 3^b % of control
- Sphingomyelinase pH 7.1, enzyme activity (% of control) ([6]; 50 μM): 120 ± 3^b % of control
- GlcCer in cells (TLC) (MDCK cells [7]; 1 μM for 3 days): virtually no GlcCer was visible
- GlcCer in cells (TLC) (MDCK cells [7]; 0.02 to 1 μM for 3 days): great depletion of GlcCer
- ceramide accumulation (TLC) (MDCK cells [7]; 0.02 to 1 μM for 3 days): no ceramide accumulation
- all the GSLs in cells (TLC) (MDCK cells [7]; 5 days in 5 μM inhibitor): virtually undetectable
- ceramide concentration (MDCK cells [7]; depleted cells, 5 days in 5 μM inhibitor): 13.9±0.2 μg/mg protein

SMILES: CCCCCCCCCC(=O)N[C@H](CN1CCOCC1)[C@H](O)c1ccccc1 [PDMP, 1R-phenyl-2R-decanoylamino-3-morpholino-1-propanol, reference compound]
- Inhibition at 5 μM [1]: 16 ± 1.8^f %
- % Inhibition at 80 μM [1]: 90 ± 0.8^a %
- effectiveness on growth and survival of 9L cells, in words ([4]; FIG. 1): even weaker effectiveness
- Ceramidase pH 4.5, enzyme activity (% of control) (acid ceramidase; 5 μM): 97 ± 4 % of control
- Ceramidase pH 4.5, enzyme activity (% of control) (acid ceramidase; 50 μM): 133 ± 13^a % of control
- Ceramidase pH 7.4, enzyme activity (% of control) (neutral ceramidase; 5 μM): 116 ± 19 % of control
- Ceramidase pH 7.4, enzyme activity (% of control) (neutral ceramidase; 50 μM): 105 ± 11 % of control
- Ceramide Synthase, enzyme activity (% of control) (Ceramide synthase; 5 μM): 99 ± 5 % of control
- Ceramide Synthase, enzyme activity (% of control) (Ceramide synthase; 50 μM): 66 ± 9^a % of control
- Sphingomyelinase pH 4.5, enzyme activity (% of control) (Acid SMase; 5 μM): 102 ± 3 % of control
- Sphingomyelinase pH 4.5, enzyme activity (% of control) (Acid SMase; 50 μM): 100 ± 3 % of control
- Sphingomyelinase pH 7.1, enzyme activity (% of control) ([6]; 5 μM): 121 ± 13 % of control
- Sphingomyelinase pH 7.1, enzyme activity (% of control) ([6]; 50 μM): 108 ± 8 % of control

SMILES: CCCCCCCCCCCCCC(=O)N[C@@H](C)[C@H](O)c1ccccc1 [D-erythro-N-myristoyl-2-amino-1-phenyl-1-propanol, reference compound]
- inhibition of GlcCer synthase by nonionic ceramide-like compounds [1]: did not inhibit
